Tests used:
[1] = Isothermal glucose titrations from fluorescent landscapes (Roche LightCycler); assay type: binding
Description: (§1) The titration series were mixed with GGBP183C⋅acrylodan or BD_SM4⋅acrylodan conjugates in 384-well microtiter plates. The temperature dependence of the titrations was measured in a real-time PCR machine (Roche LightCycler 480) by determining the ratio of fluorescence emission intensities at 488, 510, and 580 nm (excitation at 440 nm) as a function of temperature (290-370K). Temperatures were advanced in 1K steps. At each temperature data was collected for at 1-second intervals for 60 seconds at which point the signal had relaxed to a steady value associated with the new temperature. Collection times were adjusted to minimize photobleaching (which was not detectable under these experimental conditions). Data reduction software was developed to convert these observations into time-independent datasets that record fluorescence as a function of temperature for each well and associate wells with their concentration of titrant and additive. Management tools were developed to maintain a database of titrations and their analyses.
The response of acrylodan to glucose binding was separated from the effects of thermal denaturation by extracting binding isotherms within the temperature range where the apo-protein remains >99% folded (T<320 K; FIG. 7). Within this temperature range, binding isotherms were constructed by extracting fluorescence values across different wells, each containing different glucose concentrations, at a given temperature, and fit individually with high accuracy to isotherms (FIG. 8):
using linear baselines which vary individually in accordance with the tilt of the S, S1, and S2 baseplanes that correspond the saturated glucose complex. The individually fit Kd(T) values were converted into ΔGb(T) and fit to the Gibbs-Helmholtz equation 9 (FIG. 9).
(§2) Analysis of mutant affinity values: Isothermal glucose titrations were extracted from the fluorescent landscape or emission datasets as described above. Monochromatic emission intensities Iλ. (these intensities correspond to a bandpass intensity recorded with a physical filter in the case of the Roche LightCycler) were fit to
(§3) where ^apoIλ2 ^apoIλ2 and ^satIλ2^satIλ2 are the emission intensities of the monochromatic signal at wavelength λ2λ2 of the ligand-free and ligand-bound protein, respectively. Equation 28 illustrates that the ^appKd ^appKd values obtained by fits of 25 to ratiometric signals are wavelength dependent. To obtain wavelength-independent values needed for comparison of mutant proteins, it is necessary to simultaneously fit ^appKd ^appKd to the ratiometric signal and ^trueKd ^trueKd to the two monochromatic signals. For a given isothermal titration, values for ^appKd ^appKd and ^trueKd ^trueKd were obtained using a non-linear fitting algorithm in which these two parameters were simultaneously fit to the three experimental binding isotherms using equations 23 and 27, with the two monochromatic isotherms sharing the same ^trueKd ^trueKd value. Three separate pairs of linear ^apoβ ^apoβ and ^satβ ^satβ baselines were fit in this procedure. TABLES 1-5 record the ^trueKd ^trueKd values at 25° C., obtained by analysis of Roche LightCycler data in 488 nm and 510 nm channels. The uncertainty of the fit (‘error’) was obtained using a boot-strapping technique in which 37% of the data was replicated. In all cases, no binding was recorded if one of ^appKd ^appKd or ^trueKd ^trueKd exceeded 200 mM. The glucose constant of GGBP183 C-acrylodan is 4.21±0.08 mM at 25° C.

[2] = Galactose affinities of the mutants that bind glucose (Roche LightCycler); assay type: binding; details: trueKd at 25° C., 183C acrylodan conjugates, read-out: Kd^298K(galactose)/mM
Excerpt: as §2, §3
The galactose affinities for those mutants that bind glucose were also determined.

[3] = Thermal denaturation followed by fluorescence ratio, two-state fit; assay type: physicochemical; details: for Tm/K: thermal stability of the 183C acrylodan conjugate mutant
Description: as §1
Fits of these equation systems to experimental observations such as shown in FIG. 5 require good initial estimates of the parameters. These can then be refined using multi-dimensional conjugate gradient methods. To obtain local fits for protein thermostability in the absence of ligand we solve
This gives excellent fits (FIG. 7).

[4] = Glucose titration at room temperature on Nanodrop3300 fluorimeter; assay type: binding
Description: (§4) In addition to the Roche LightCycler, which has a limited choice of emission wavelengths, data for selected mutants also was measured at room temperature on a Nanodrop3300 (Thermo Scientific) fluorimeter, which records full emission spectra. Emission intensities at a particular wavelength were extracted by integration of the spectral emission intensities over a 20-nm interval centered on that wavelength.
(§5) Signals S (either single-wavelength emission intensities, LT, or ratios of intensities at two wavelengths, Rig) were fit to ligand-binding isotherms:
(§6) where [L] is the ligand concentration and Kd the dissociation constant corresponding to ^appKd or ^trueKd for fits to R12 (weighted by the relative contributions of ^satβ at the two different wavelengths) and Iλ respectively. For a given isothermal titration, values for ^appKd and ^true Kd were obtained using a non-linear fitting algorithm in which these two parameters were simultaneously fit to the three experimental binding isotherms using equations 29 and 30, with the two monochromatic isotherms sharing the same ^trueKd value. Three separate pairs of ^apoβ and ^satβ were fit in this procedure.

[5] = Galactose titration at room temperature on Nanodrop3300 fluorimeter; assay type: binding; details: ^e noisy data
Description: as §4, §5, §6

[6] = Fluorescence emission response to ligand binding; set-up: key to Response Intensity^c: +, increases in response to ligand; —: decreases; 0, no change in the glucose titration; key to Response Shape^b: m, monochromatic; d, dichromatic (i.e. spectral shape changes); 0, no change in the glucose titration; details: for Response Intensity^c / Response Shape^b: glucose titration, Nanodrop3300, room temperature
Description: as §1, §4

[7] = Isothermal glucose titrations from fluorescent landscapes (Roche LightCycler); assay type: binding; remark: listed apart in the source
[8] = Ca2+ binding followed through thermal stability shifts in the absence of glucose; details: 37° C.
Excerpt: GGBP binds Ca^2+ at a location remote from glucose (FIG. 1). The binding of Ca^2+ was investigated in the absence of glucose (FIG. 12). […] Nevertheless, Ca^2+ binding can be followed through its effect on protein stability (FIG. 13). […] However, at elevated concentrations, this stabilization effect levels off and addition of Ca^2+ becomes destabilizing. […] These effects can be modeled accurately by a fit of the ligand- and temperature-dependent free energy of stability for Ca^2+ (Judge et al. Diabetes Technol. Thera. 2011, 13, 309-317; Layton et al. Biochemistry 2010, 49, 10831-10841). The individual terms are cast in terms of T and [Ca^2+] using equations 4-9. However, rather than fitting fluorescent landscape data directly using 1, Tm and ΔHu, values are extracted at each Ca^2+ concentration using 16 and 17, and fit to the equation system by determining the root of 19 to obtain the calculated Tm value.

[9] = trueKd at 25° C., 183C acrylodan conjugates, LightCycler 488 nm and 510 nm channels, ± = bootstrap uncertainty of fit, read-out: Kd^298K(glucose)/mM
[10] = apparent, ratiometric signal at the listed wavelength pair, read-out: Affinities (mM)^d Glucose aPPKa
[11] = from monochromatic signals, read-out: Affinities (mM)^d Glucose trueKa
[12] = apparent, ratiometric signal at the listed wavelength pair, read-out: Affinities (mM)^d Galactose ^appKd
[13] = from monochromatic signals, read-out: Affinities (mM)^d Galactose ^trueKd
[14] = 37° C., mutations in GGBP183C⋅acrylodan, read-out: glucose Kd values at 37° C.

Substance | Kd [1, 9] | Kd [2] | Tm/K [3] | Kd [4, 10] | Kd [4, 11] | Kd [5, 12] | Kd [5, 13] | effect of glucose binding on fluorescence ([6]; 488/580 ratio) | Response Intensity^c [6] | Response Shape^b [6] | Kd [7, 14] | decrease in the affinity for glucose compared to the wild-type protein [1] | Kd ([1]; 25° C., read-out: glucose constant) | apoTm ([3]; apo-protein, two-state fit) | ΔapoHu ([3]; apo-protein, two-state fit) | Kd ([8]; read-out: Ca^2+ affinity in the native state at a single site) | Kd ([8]; read-out: calculated Kd for Ca2+, single folded state site) | Kd ([8]; read-out: calculated Kd for Ca2+, single, medium-affinity denatured state) | Kd ([8]; read-out: calculated Kd for Ca2+, two, low-affinity denatured states) | Kd ([7]; 37° C. (310K), fit of equation 18, read-out: Kd, glucose binding isotherm)
A155N: GGBP 183C acrylodan conjugate with mutation A155N | 5.9 ± 1 mM | 7.5 ± 1 mM | 320 K | 0.14 mM | 0.23 mM | 4.5 mM | 6.6 mM | increases the 488/580 ratio | — | d | ~13 mM |  |  |  |  |  |  |  |  | 
GGBP183C⋅acrylodan: E. coli glucose-galactose binding protein W183C mutant conjugated to acrylodan; parent sensor |  |  |  | 6 mM | 4.4 mM | 31 mM | 24 mM |  | — | d |  | 10,000 fold | 4.21 ± 0.08 mM | 322.2 K | 197.3 kcal/mol | ~0.01 µM | 0.0108 µM | 370 µM | 8800 µM | 6.58 ± 0.03 mM
E149K: GGBP 183C acrylodan conjugate with mutation E149K | 1.44 ± 0.04 mM | 40.2 ± 1.3 mM | 321 K | 1.5 mM | 1.2 mM | 34 mM | 27 mM |  | — | d | ~0.5 mM |  |  |  |  |  |  |  |  | 
E149Q: GGBP 183C acrylodan conjugate with mutation E149Q | 0.46 ± 0.01 mM | 10.8 ± 0.4 mM | 322 K | 0.6 mM | 0.43 mM | 2.3 mM | 2.1 mM |  | — | d | ~0.5 mM |  |  |  |  |  |  |  |  | 
E149S: GGBP 183C acrylodan conjugate with mutation E149S | 0.34 ± 0.01 mM | 12.7 ± 15 mM | 320 K | 0.38 mM | 0.36 mM | 6.8 mM | 5.4 mM |  | — | d | ~0.5 mM |  |  |  |  |  |  |  |  | 
